Assay results published in US20240033278A9, “CONJUGATE GROUP AND CONJUGATE” (MEDSHINE DISCOVERY INC., priority 2020, published 2024).

Target: T1, human-derived anti-asialoglycoprotein receptors (ASGPR) (Homo sapiens, UniProt P07306)
T1 construct: purchased Sino Biological 10773-H07H
T1 sequence (P07306 1-291): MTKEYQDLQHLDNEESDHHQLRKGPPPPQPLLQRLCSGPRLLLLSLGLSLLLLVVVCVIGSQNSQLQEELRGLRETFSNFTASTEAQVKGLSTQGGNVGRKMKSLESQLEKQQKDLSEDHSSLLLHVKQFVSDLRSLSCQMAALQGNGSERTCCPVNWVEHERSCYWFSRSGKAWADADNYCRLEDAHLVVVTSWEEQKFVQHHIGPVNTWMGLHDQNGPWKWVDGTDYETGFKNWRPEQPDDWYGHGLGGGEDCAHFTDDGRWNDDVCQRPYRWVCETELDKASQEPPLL
Assay: Binding affinity of the compound to human-derived ASGPR by surface plasmon resonance (SPR)
Protocol: Assay Example 1. Test of the Binding Affinity of the Compound to Human-Derived […]
The binding affinity of the compound to human-derived […] (ASGPR) was tested by surface plasmon resonance (SPR) technique, and the kinetic KD value of the compound was used as an indicator to evaluate the binding affinity of the compound to ASGPR, thereby reflecting the ability of the compound to specifically target hepatocytes for delivery of nucleic acid molecules.
Asialoglycoprotein Receptor Protein, Mouse, Recombinant (His Tag), Sino biological-50083-M07H-50 μg; Asialoglycoprotein Receptor Protein, Human, Recombinant (His Tag), Sino biological-10773-H07H-50 μg
3.1 The two proteins were respectively dissolved in 1×PBS to obtain a solution of 0.25 mg/mL, and the compound to be tested was dissolved in DMSO. The running buffer (10 mM HEPES, 150 mM NaCl, 0.05% Tween 20, 50 mM CaCl2, 50 μM EDTA) was prepared and filtered through a 0.22 μm membrane.
3.2 The NiHC 1500M Chip was docked into a biacore, and the system was switched to a running buffer.
3.3 Protein labeling: The chip was first treated with 350 mM EDTA at 30 μl/min for 5 min, rinsed with running buffer for 2 min, and then bound with 40 mM NiCl2 at 30 μl/min for 2 min. A protein diluted to 5 μg/mL with running buffer was then labeled on the chip at a flow rate of 10 μl/min for a final labeling amount of 1500-2000 RU.
3.4 The instrument system was switched to a running buffer containing 2% DMSO.
3.5 The compound with a starting concentration of 2 μM was serially diluted 2-fold with a running buffer containing 2% DMSO to obtain 9 concentrations. The final concentration of DMSO was 2%.
3.6 Testing: For each cycle, the compound was bound for 60 s and dissociated for 180 s at a flow rate of 50 μl/min. The compound was tested in order of concentration from low to high. Before the gradient testing of the compound, 4 cycles of blank (running buffer with 2% DMSO) were introduced, and solvent correction was performed with 1.5%-3.5% DMSO (6 concentrations).
The data were analyzed with Biacore Insight Evaluation Software, kinetics was analyzed with a 1:1 model, and affinity was analyzed with a steady state affinity model.

binding affinity in the SPR assay (in words) (SPR): good binding affinity
Kd (SPR (Biacore 8k), kinetic KD, 1:1 model, His-tagged recombinant protein on NiHC 1500M chip): 15.6 nM
kon (SPR, association rate constant, 1:1 model, read-out: Ka): 1.08e+06 M⁻¹ s⁻¹
koff (SPR, dissociation rate constant, 1:1 model): 0.0168 s⁻¹
SMILES: COc1ccc(C(OC[C@@H]2C[C@@H](O)CN2C(=O)CCCCCCCCCCOCC(COCCC(=O)NCCCNC(=O)CCCCOC2OC(CO)C(O)C(O)C2NC(C)=O)(COCCC(=O)NCCCNC(=O)CCCCOC2OC(CO)C(O)C(O)C2NC(C)=O)NC(=O)CCC(=O)NCCCNC(=O)CCCCOC2OC(CO)C(O)C(O)C2NC(C)=O)(c2ccccc2)c2ccc(OC)cc2)cc1 (stereo partly drawn) [Compound D-01-M]
